Literature values, collected in PubChem BioAssay AID1259409 (Chemical Carcinogenesis Research Information System (CCRIS), 2018).

Test system: rodent chemically induced tumor inhibition, incidence and multiplicity
Test: CCRIS tumor inhibitor studies

| Compound | tumour outcome (control, treated, inhibition, significance) (Carcinogen: 4-(METHYLNITROSAMINO)-1-(3-PYRIDYL)-1-BUTANONE [64091-50-5], Dose [Inhibitor]: 80 MMOL/KG IN DIET FOR 17 WK BEGINNING 1 WK PRIOR TO FIRST CARCINOGEN DOSE (STUDY DURATION: 17 WK), Route [Inhibitor]: ORAL, Species: MOUSE, Strain/Sex: A/J/FEMALE, Target Tissue: Type of Lesion: LUNG: ADENOMA, Dose [Carcinogen]: 10 UMOL ONCE 1 WK POST FIRST INHIBITOR DOSE (STUDY DURATION: 17 WK), Promoter: NONE) | tumour outcome (control, treated, inhibition, significance) (Carcinogen: 4-(METHYLNITROSAMINO)-1-(3-PYRIDYL)-1-BUTANONE [64091-50-5], Dose [Inhibitor]: 80 MMOL/KG IN DIET FOR 53 WK BEGINNING 1 WK PRIOR TO FIRST CARCINOGEN DOSE (STUDY DURATION: 53 WK), Route [Inhibitor]: ORAL, Species: MOUSE, Strain/Sex: A/J/FEMALE, Target Tissue: Type of Lesion: LUNG: ADENOMA OR ADENOCARCINOMA, Dose [Carcinogen]: 10 UMOL ONCE 1 WK POST FIRST INHIBITOR DOSE (STUDY DURATION: 53 WK), Promoter: NONE) | tumour outcome (control, treated, inhibition, significance) (Carcinogen: 4-(METHYLNITROSAMINO)-1-(3-PYRIDYL)-1-BUTANONE [64091-50-5], Dose [Inhibitor]: 160 MMOL/KG IN DIET FOR 17 WK BEGINNING 1 WK PRIOR TO FIRST CARCINOGEN DOSE (STUDY DURATION: 17 WK), Route [Inhibitor]: ORAL, Species: MOUSE, Strain/Sex: A/J/FEMALE, Target Tissue: Type of Lesion: LUNG: ADENOMA, Dose [Carcinogen]: 10 UMOL ONCE 1 WK POST FIRST INHIBITOR DOSE (STUDY DURATION: 17 WK), Promoter: NONE) | tumour outcome (control, treated, inhibition, significance) (Carcinogen: 4-(METHYLNITROSAMINO)-1-(3-PYRIDYL)-1-BUTANONE [64091-50-5], Dose [Inhibitor]: 160 MMOL/KG IN DIET FOR 53 WK BEGINNING 1 WK PRIOR TO FIRST CARCINOGEN DOSE (STUDY DURATION: 53 WK), Route [Inhibitor]: ORAL, Species: MOUSE, Strain/Sex: A/J/FEMALE, Target Tissue: Type of Lesion: LUNG: ADENOMA OR ADENOCARCINOMA, Dose [Carcinogen]: 10 UMOL ONCE 1 WK POST FIRST INHIBITOR DOSE (STUDY DURATION: 53 WK), Promoter: NONE) | tumour outcome (control, treated, inhibition, significance) (Carcinogen: 4-(METHYLNITROSAMINO)-1-(3-PYRIDYL)-1-BUTANONE, 64091-91-4, Dose [Inhibitor]: 0, 6528 PPM IN DIET FOR 22 WK BEGINNING 1 WK PRIOR TO CARCINOGEN TREATMENT (STUDY DURATION: 98 WK), Route [Inhibitor]: ORAL, Species: RAT, Strain/Sex: F344/MALE, Target Tissue: Type of Lesion: LUNG: TUMOR, Dose [Carcinogen]: 1.5 MG/KG BW 3/WK FOR 20 WK, Promoter: NONE USED) | tumour outcome (control, treated, inhibition, significance) (Carcinogen: 4-(METHYLNITROSAMINO)-1-(3-PYRIDYL)-1-BUTANONE, 64091-91-4, Dose [Inhibitor]: 0, 6528 PPM IN DIET FOR 22 WK BEGINNING 1 WK PRIOR TO CARCINOGEN TREATMENT (STUDY DURATION: 98 WK), Route [Inhibitor]: ORAL, Species: RAT, Strain/Sex: F344/MALE, Target Tissue: Type of Lesion: NASAL CAVITY: TUMOR, Dose [Carcinogen]: 1.5 MG/KG BW 3/WK FOR 20 WK, Promoter: NONE USED) | tumour outcome (control, treated, inhibition, significance) (Carcinogen: 4-(METHYLNITROSAMINO)-1-(3-PYRIDYL)-1-BUTANONE, 64091-91-4, Dose [Inhibitor]: 0, 13056 PPM IN DIET FOR 22 WK BEGINNING 1 WK PRIOR TO CARCINOGEN DOSE (STUDY DURATION: 98 WK), Route [Inhibitor]: ORAL, Species: RAT, Strain/Sex: F344/MALE, Target Tissue: Type of Lesion: NASAL CAVITY: TUMOR, Dose [Carcinogen]: 1.5 MG/KG BW 3/WK FOR 20 WK, Promoter: NONE USED) | tumour outcome (control, treated, inhibition, significance) (Carcinogen: 4-(METHYLNITROSAMINO)-1-(3-PYRIDYL)-1-BUTANONE, 64091-91-4, Dose [Inhibitor]: 0, 13056 PPM IN DIET FOR 22 WK BEGINNING 1 WK PRIOR TO CARCINOGEN TREATMENT (STUDY DURATION: 98 WK), Route [Inhibitor]: ORAL, Species: RAT, Strain/Sex: F344/MALE, Target Tissue: Type of Lesion: LUNG: TUMOR, Dose [Carcinogen]: 1.5 MG/KG BW 3/WK FOR 20 WK, Promoter: NONE USED) | tumour outcome (control, treated, inhibition, significance) (Carcinogen: 7,12-DIMETHYLBENZ[A]ANTHRACENE, 57-97-6, Dose [Inhibitor]: 0, 4000 PPM IN DIET FOR DURATION OF STUDY BEGINNING 1 WK PRIOR TO CARCINOGEN DOSE (STUDY DURATION: 107 D), Route [Inhibitor]: ORAL, Species: RAT, Strain/Sex: SPRAGUE-DAWLEY/FEMALE, Target Tissue: Type of Lesion: MAMMARY GLAND: ADENOCARCINOMA, Dose [Carcinogen]: 12 MG ONCE, Promoter: NONE USED) | tumour outcome (control, treated, inhibition, significance) (Carcinogen: 7,12-DIMETHYLBENZ[A]ANTHRACENE, 57-97-6, Dose [Inhibitor]: 0, 8000 PPM IN DIET FOR DURATION OF STUDY BEGINNING 1 WK PRIOR TO CARCINOGEN DOSE (STUDY DURATION: 107 D), Route [Inhibitor]: ORAL, Species: RAT, Strain/Sex: SPRAGUE-DAWLEY/FEMALE, Target Tissue: Type of Lesion: MAMMARY GLAND: ADENOCARCINOMA, Dose [Carcinogen]: 12 MG ONCE, Promoter: NONE USED) | tumour outcome (control, treated, inhibition, significance) (Carcinogen: AZOXYMETHANE, 25843-45-2, Dose [Inhibitor]: 0, 600 PPM IN DIET BEGINNING 2 WK PRIOR TO CARCINOGEN TREATMENT AND CONTINUING FOR DURATION OF STUDY (STUDY DURATION: 56, Route [Inhibitor]: ORAL, Species: RAT, Strain/Sex: F344/MALE, Target Tissue: Type of Lesion: COLON: INVASIVE ADENOCARCINOMA, Dose [Carcinogen]: 15 MG/KG 1/WK FOR 2 WK, Promoter: NONE USED) | tumour outcome (control, treated, inhibition, significance) (Carcinogen: AZOXYMETHANE, 25843-45-2, Dose [Inhibitor]: 0, 600 PPM IN DIET BEGINNING 2 WK PRIOR TO CARCINOGEN TREATMENT AND CONTINUING FOR DURATION OF STUDY (STUDY DURATION: 56, Route [Inhibitor]: ORAL, Species: RAT, Strain/Sex: F344/MALE, Target Tissue: Type of Lesion: COLON: NONINVASIVE ADENOCARCINOMA, Dose [Carcinogen]: 15 MG/KG 1/WK FOR 2 WK, Promoter: NONE USED) | tumour outcome (control, treated, inhibition, significance) (Carcinogen: AZOXYMETHANE, 25843-45-2, Dose [Inhibitor]: 0, 1200 PPM IN DIET BEGINNING 2 WK PRIOR TO CARCINOGEN TREATMENT AND CONTINUING FOR DURATION OF STUDY (STUDY DURATION: 5, Route [Inhibitor]: ORAL, Species: RAT, Strain/Sex: F344/MALE, Target Tissue: Type of Lesion: COLON: INVASIVE ADENOCARCINOMA, Dose [Carcinogen]: 15 MG/KG 1/WK FOR 2 WK, Promoter: NONE USED) | tumour outcome (control, treated, inhibition, significance) (Carcinogen: AZOXYMETHANE, 25843-45-2, Dose [Inhibitor]: 0, 1200 PPM IN DIET BEGINNING 2 WK PRIOR TO CARCINOGEN TREATMENT AND CONTINUING FOR DURATION OF STUDY (STUDY DURATION: 5, Route [Inhibitor]: ORAL, Species: RAT, Strain/Sex: F344/MALE, Target Tissue: Type of Lesion: COLON: NONINVASIVE ADENOCARCINOMA, Dose [Carcinogen]: 15 MG/KG 1/WK FOR 2 WK, Promoter: NONE USED) | tumour outcome (control, treated, inhibition, significance) (Carcinogen: DIETHYLNITROSAMINE, 55-18-5, Dose [Inhibitor]: 0, 30 MG/KG BW BY INTRAPERITONEAL INJECTION ON DAYS 13, 14 AND 15 OF AGE THEN 2 G/KG DIET FROM 21 TO 161 DAYS OF AGE (ST, Route [Inhibitor]: INTRAPERITONEAL, ORAL, Species: MOUSE, Strain/Sex: C3H/MALE, Target Tissue: Type of Lesion: LIVER: ADENOMA, Dose [Carcinogen]: 4 MG/KG IN TRICAPRYLIN ONCE ON DAY 15 OF AGE, Promoter: NONE USED) | tumour outcome (control, treated, inhibition, significance) (Carcinogen: 4-DIMETHYLAMINOAZOBENZENE, 60-11-7, Dose [Inhibitor]: 0.5% OF DIET DAILY STARTING SIMULTANEOUSLY WITH CARCINOGEN TREATMENT AND CONTINUING THROUGH THE END OF THE STUDY (STUDY, Route [Inhibitor]: ORAL, Species: RAT, Strain/Sex: OSBORNE-MENDEL/MALE, Target Tissue: Type of Lesion: LIVER: HEPATOMA, ADENOCARCINOMA, Dose [Carcinogen]: 0.06% OF DIET DAILY THROUGH THE END OF THE STUDY, Promoter: NONE USED) |
| --- | --- | --- | --- | --- | --- | --- | --- | --- | --- | --- | --- | --- | --- | --- | --- | --- |
| CC(=O)N[C@@H](CS)C(=O)O | 100%, 100%, 0%, not significant | 100%, 93%, 7%, not significant | 100%, 100%, 0%, not significant | 100%, 97%, 3%, not significant | 22/33 (67%), 22/36 (61%), 9%, not significant | 28/36 (78%), 22/36 (61%), 22%, not significant | 28/36 (78%), 17/36 (47%), 40%, not significant | 22/33 (67%), 21/36 (58%), 13%, not significant | 92%, 88%, 4%, not significant | 92%, 92%, 0%, not significant | 34%, 22%, 35%, not significant | 53%, 44%, 17%, not significant | 34%, 19%, 44%, not significant | 53%, 42%, 21%, not significant | 100%, 100%, 0%, not significant | – |
| N[C@@H](CSSC[C@H](N)C(=O)O)C(=O)O | – | – | – | – | – | – | – | – | – | – | – | – | – | – | – | 48/80 (60%), 84/87 (97%), -62%, not calculated |
